Assay results from patent publication US12610948B2, “Choline chloride adjuvant for fatty acid based biopesticide” (Stratacor, Inc., priority 2020, dated 2026).
Each block holds one molecule with its values, some of them ahead of it.

Tests used:
[1] = test system: stable flies (Stomoxys calcitrans); assay: Laboratory Petri dish filter paper incapacitation test, stable flies; assay type: in vivo; conditions: 1 ml on 9 cm filter paper in Petri dish
Text: (§1) Mixed sex stable flies (Stomoxys calcitrans) were obtained as pupae from a colony at the University of Nebraska West Central Research and Extension Center, North Platte, Nebraska. Mixed sex horn flies (Haematobia irritans), sensitive and knockdown resistant (Kdr), were obtained as pupae from a colony at The Center for Animal Health and Food Safety, New Mexico State University, Las Cruces, New Mexico. Adult horn and stable flies were allowed to emerge in 1 cubic foot cages at approximately 80 degrees Fahrenheit and were maintained on citrated whole blood (Quad Five, Rygate, Montana). Mixed sex house flies (Musca domestica) were obtained as pupae from Carolina Biological, Charlotte, North Carolina Adults were allowed to emerge in 1 cubic foot cages at approximately 80 degrees Fahrenheit and were maintained on water and sugar cubes. Mixed sex German cockroaches (Blattella germanica) were obtained as adults from Carolina Biological. Prior to use, roaches were kept with the supplied food source in paper towels contained in 1 cubic foot cages. Flies were used 4-6 days post emergence.
(§2) An aqueous emulsion of the octanoic/decanoic acid mix (C8C10) was prepared by addition to an aqueous solution of the sodium salts of the fatty acids, prepared by mixing equal molar amounts of sodium hydroxide and fatty acid.

[2] = test system: Sensitive Horn Fly (Haematobia irritans); assay: Laboratory Petri dish incapacitation test, sensitive horn flies; assay type: in vivo; conditions: C8C10 organic aqueous emulsion, sensitive strain
Text: as §1, §2

[3] = test system: Knockdown Resistant (Kdr) Horn Fly (Haematobia irritans); assay: Laboratory Petri dish incapacitation test, knockdown resistant (Kdr) horn flies; assay type: in vivo; conditions: C8C10 organic aqueous emulsion, Kdr strain
Text: as §1, §2

[4] = test system: house flies (Musca domestica); assay: Laboratory Petri dish incapacitation test, house flies; assay type: in vivo; conditions: aqueous emulsion, N = 3-4
Text: as §1, §2

[5] = test system: German cockroaches (Blattella germanica); assay: Laboratory Petri dish incapacitation test, German cockroaches; assay type: in vivo; conditions: aqueous emulsion, 6 roaches per dish
Text: as §1, §2

insect = conditions: 1% choline chloride in distilled water
Text: However, several factors (e.g., volatility, skin penetration, odor, irritation of the skin, eyes, and respiratory passages, leaf wilt, incapacitation reversibility, etc.) inherent to fatty acids may limit their practical use for certain applications as a biopesticide, especially when used at a high dosage.

acetylcholine receptors = conditions: scale where acetylcholine is 100; Keyl et al., 1957; cited from earlier work
[6] = assay type: in vitro ADME
Text: The C8910 fatty acids are volatile (Reifenrath, 2015b), and 24-61% of the applied dose evaporated exponentially from clay formulation applied to skin. Skin penetration will also limit duration for dermal treatments (e.g., about 50-75% of the applied dose of octanoic and decanoic acid penetrated cattle skin from mineral oil). To provide finer control of these modes of loss, the development of longer lasting controlled-release formulations (clay nanotubes, disintegrating granules, and microcapsules) for use as premises spray and direct skin application for protecting cattle against biting flies and ticks was investigated (Reifenrath, 2015c), with none of the carriers showing an extended duration. Since that time, however, it has been shown that an aqueous dilution (to 1% C8910) of an emulsifiable concentrate could achieve a similar duration of effectiveness (2-3 days after a single treatment) as the 15% oil formulation. […] The limited duration of such a formulation can be overcome by more frequent application (e.g. walk-through sprayers).

SMILES: C[N+](C)(C)CCO.[Cl-] [Choline Chloride, 1.0%, Choline chloride]
- % Incapacitation at 24 h (Mean +/− S.D., N = 3) [1]: 4 +/− 3%
- % Incapacitation at 24 h (Mean +/− S.D., N = 3), Sensitive [2]: 0 +/− 0%
- % Incapacitation at 24 h (Mean +/− S.D., N = 3), Kdr [3]: 2 +/− 4%
- % Incapacitation at 24 h (Mean +/− S.D.) [4]: 0 +/− 0%
- % Incapacitation at 24 h (Mean +/− S.D., N = 3) [5]: 0 +/− 0%
- % Incapacitation at 24 h (Mean +/− S.D., N = 3) ([5]; listed as choline chloride): no effect
- insecticidal effect (insect): little or no insecticidal effect

SMILES: CCCC(=O)OCC[N+](C)(C)C [Formulation C4]
- relative potency (acetylcholine receptors): 100

SMILES: CCCCC(=O)OCC[N+](C)(C)C [Formulation C5]
- relative potency (acetylcholine receptors): 54

SMILES: CCCCCC(=O)OCC[N+](C)(C)C [Formulation C6]
- relative potency (acetylcholine receptors): 20

- applied dose penetrated cattle skin [6]: 50-75%
SMILES: CCCCCCCCCC(=O)O [decanoic acid]

- applied dose penetrated cattle skin [6]: 50-75%
SMILES: CCCCCCCC(=O)O [octanoic acid]
